Assay results taken from paper PMC8066730, “Alteration of Anticancer and Protein-Binding Properties of Gold(I) Alkynyl by Phenolic Schiff Bases Moieties” (Pharmaceutics, 2021).

Experiments:
[1] = tested on: HOP-62 (non-small-cell lung cancer cell line); assay: SRB cytotoxicity assay, HOP-62; assay type: cell-based, human; settings: 3 days incubation, DMSO solutions
Experimental: (§1) The cells were obtained by the Egyptian Holding Company for Biological Products and Vaccines (VACSERA) and then maintained in the tissue culture unit. Cells were grown in RPMI-1640 medium, supplemented with 10% heat inactivated FBS, 50 units/mL of penicillin, and […] of streptomycin, and maintained in a humidified atmosphere with 5% carbon dioxide. The cells were kept as monolayer cultures by serial sub-culturing, using cell culture reagents from Lonza (Basel, Switzerland). The antitumor activities of the complexes were assessed against OVCAR-3 (ovarian carcinoma cancer) and HOP-62 (non-small-cell lung cancer) cell lines.
(§2) The sulforhodamine B (SRB) assay method was applied to determine the cytotoxicity, as described in the literature. Exponentially growing cells were collected using 0.25% Trypsin-EDTA and seeded in 96-well plates at 1000–2000 cells/well in RBMI-1640 supplemented medium. The cells were kept in the medium for 24 h and then incubated for 3 days with various concentrations of the gold compounds. Following 3 days of treatment, the cells were fixed with 10% Cl3CCOOH for 60 min at 4 °C. Wells were stained for 10 min at room temperature with 0.4% SRBC dissolved in 1% CH3COOH. The plates were air dried for 24 h, and the dye was dissolved in Tris-HCl for 5 min with shaking at 1600 rpm. The optical density of each well was evaluated spectrophotometrically at 564 nm with an ELISA microplate reader (ChroMate-4300, Orlando, FL, USA). The half […] inhibitory concentration (IC50) values were calculated from a Boltzmann sigmoidal concentration response curve using nonlinear regression fitting models (Graph Pad, Prism Version 9, San Diego, CA, USA).

[2] = tested on: OVCAR-3 (ovarian carcinoma cancer cell line); assay: SRB cytotoxicity assay, OVCAR-3; assay type: cell-based; settings: for IC50: 3 days incubation, SRB, DMSO solutions
Experimental: as §1, §2

[3] = target: human serum albumin (HSA) (Homo sapiens, UniProt P02768); assay: HSA fluorescence quenching binding study; parameters: Kq (quenching rate constant): unit not given here; settings: for n (number of binding sites) / Ksv (Stern–Volmer quenching constant) / Kq (quenching rate constant) / ∆G^0 (Gibbs free energy of binding to HSA): 295 K; for Ksv (Stern–Volmer quenching constant): HSA 32 µM, Tris-HCl/NaCl buffer pH 7.4, ca. 20% DMSO; for Kq (quenching rate constant): Ksv = Kq × τ0, τ0 = 7 ns; for ∆G^0 (Gibbs free energy of binding to HSA): calculated from Kb; for fold enhancement in HSA binding affinity on replacing triphenylphosphine with tricyclohexylphosphine: proceeding from 1 to 2 and 3 to 5; for fold increase in HSA binding affinity on introducing the o-phenolic moiety: proceeding from 1 to 3 and 2 to 5
Chain of human serum albumin (HSA) (P02768 25-609): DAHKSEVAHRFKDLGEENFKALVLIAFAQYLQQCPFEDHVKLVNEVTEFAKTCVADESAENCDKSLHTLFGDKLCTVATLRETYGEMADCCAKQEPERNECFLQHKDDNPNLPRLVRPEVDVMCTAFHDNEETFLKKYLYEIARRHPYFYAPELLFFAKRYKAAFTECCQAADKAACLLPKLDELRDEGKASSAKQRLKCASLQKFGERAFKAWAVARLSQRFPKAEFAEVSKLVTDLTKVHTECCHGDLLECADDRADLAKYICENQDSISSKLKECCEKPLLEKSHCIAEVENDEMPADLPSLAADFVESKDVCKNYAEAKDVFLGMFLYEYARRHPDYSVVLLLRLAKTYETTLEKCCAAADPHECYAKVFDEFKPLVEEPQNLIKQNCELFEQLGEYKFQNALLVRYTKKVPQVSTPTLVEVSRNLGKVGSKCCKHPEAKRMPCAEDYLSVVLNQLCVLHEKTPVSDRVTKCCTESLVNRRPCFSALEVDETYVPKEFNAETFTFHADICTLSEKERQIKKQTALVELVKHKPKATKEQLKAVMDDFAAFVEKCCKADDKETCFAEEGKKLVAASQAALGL
Experimental: Human serum albumin (HSA) solution (32 µM) was prepared in Tris-HCl/NaCl aqueous buffer (pH = 7.4). The solution was titrated with different concentrations of complexes 1–5 in DMSO (the amount of DMSO was maintained at ca. 20% v/v). The changes in the emission intensity of the protein were followed at around 330 nm upon excitation at 275 nm after incubating the complexes for 4 min at 295 K. The Stern–Volmer quenching constants (KSV) were obtained from Equation (1), where Io and I are the emission intensities of the protein in the absence and the presence of the complexes, respectively. The […]; the KSV value was defined as the slope of the line. The Stern–Volmer constant is related to the quenching constant by Equation (2), where Kq is the quenching rate constant, and τ0 is the average lifetime of the fluorescence for free HSA (τ0 = 7 ns). The binding constant (Kb, M^−1) and the number of binding sites (n) were calculated by plotting log[Io − I/I] against Log [Au complex], where the slope equals n and the intercept is equivalent to Log Kb according to Equation (3). Gibbs free energy (∆G^0) of the binding to HSA protein can be calculated by employing Equation (4), using the binding constant (Kb, M^−1). I0/I = 1 + Ksv [Au complex](1) Ksv = Kq × τ0(2) Log(I0 − I)/I = Log Kb + n Log [Au complex](3) ∆G^0 = −R × T × Ln × Kb(4)

Molecule | IC50 [1] | IC50 [2] | cytotoxic activity against OVCAR-3 in words ([2]; compared with cisplatin) | n (number of binding sites) [3] | Ksv (Stern–Volmer quenching constant) [3] | Kq (quenching rate constant) [3] | ∆G^0 (Gibbs free energy of binding to HSA) [3] | HSA binding constant relative to complex 3 (2-hydroxy) ([3]; ratio of Kb, complex 4 vs complex 3) | fold enhancement in HSA binding affinity on replacing triphenylphosphine with tricyclohexylphosphine [3] | fold increase in HSA binding affinity on introducing the o-phenolic moiety [3]
Oc1ccc(N=Cc2ccc(C#[C][Au][PH](c3ccccc3)(c3ccccc3)c3ccccc3)cc2)cc1 [Compound 4, HO–4–C6H4–N=C–4-C6H4-C≡C–Au-PPh3] | 8.16 ± 0.43 µM | 5.27 ± 0.11 µM | comparable to that of cisplatin | 1.61 | 71.5 ×10^4 | 102.21 ×10^12 | -12.4 kcal/mol | 6400 times |  | 
N.N.[Cl][Pt][Cl] [cisplatin, reference compound] | 3.91 ± 0.2 µM | 5.89 ± 0.12 µM |  |  |  |  |  |  |  | 
Au(C≡C-C6H4-4-CHO)(PPh3) [Compound 1] | 12.5 ± 0.43 µM | 13.7 ± 0.53 µM |  | 0.82 | 4.7 ×10^4 | 6.71 ×10^12 | -5.07 kcal/mol |  |  | 
HO–2–C6H4–N=C–4-C6H4-C≡C–Au-PCy3 [Compound 5] | 7.55 ± 0.43 µM | 9.11 ± 0.12 µM |  | 1.37 | 37.1 ×10^4 | 52.96 ×10^12 | -10.27 kcal/mol |  | 170 fold | 240 fold
HO–2–C6H4–N=C–4-C6H4-C≡C–Au-PPh3 [Compound 3] | 7.25 ± 0.21 µM | 9.4 ± 0.17 µM |  | 0.96 | 38.9 ×10^4 | 55.57 ×10^12 | -7.239 kcal/mol |  |  | 40 fold
OHC-4-C6H4-C≡C-Au-PCy3 [Compound 2] | 14.82 ± 0.13 µM | 15.9 ± 0.53 µM |  | 1.16 | 2.8 ×10^4 | 4.00 ×10^12 | -7.15 kcal/mol |  | 30 fold | 
